Measured values: patent US9790252B2, “2-fluorinated riboses and arabinoses and methods of use and synthesis” (CORNELL UNIVERSITY, priority 2009, dated 2017)
pEC50, pKi: −log10 of the molar value.

Columns and labels:
HEK293 and Neuro2A cells = experiment: Immucillin-H effects on β-ara-Cl-NR toxicity (MTT); format: cell-based; details: 10 μM ImmH with 5-100 μM β-ara-Cl-NR, 12 hours
Method: We speculated that like NR, the chloro derivatives might degrade in cells by action of an enzyme that converts it to ribose-1-phosphate. This enzyme is called purine nucleoside phosphorylase (PNP). Immucillin-H (gift of Schramm lab) is a potent inhibitor of PNP. […] Assay: • 1. HEK293 and Neuro2A cells were seeded in 96-well plate at a density of 25,000 cells/well the day before the experiment starts; • 2. After the cells reach 50˜60% confluency, media was taken out, and 100 μL of fresh media was added to each well; • 3. β-ara-Cl-NR (black) and ImmH (bold) were plated according to the following Table 12: • 4. After 12 hours' incubation at 37° C., the media was taken out, 100 μL of fresh media was added to each well along with 20 μL of 5 mg/mL of MTT solution (in PBS); • 5. After 2 hours' incubation at 37° C., media was taken out and 100 μL of DMSO was added to each well, the plate was mixed on shaker for 5 mins; • 6. Absorbance was measured at 570 nm.

SirT2 = target: T1, SirT2 (Homo sapiens, UniProt Q8IXJ6); experiment: SirT2 activity assay (HPLC of 2′- and 3′-AADPR); format: biochemical; details: 800 μM NAD+, 500 μM H3 peptide, pH 7.5
T1 sequence (Q8IXJ6 1-389): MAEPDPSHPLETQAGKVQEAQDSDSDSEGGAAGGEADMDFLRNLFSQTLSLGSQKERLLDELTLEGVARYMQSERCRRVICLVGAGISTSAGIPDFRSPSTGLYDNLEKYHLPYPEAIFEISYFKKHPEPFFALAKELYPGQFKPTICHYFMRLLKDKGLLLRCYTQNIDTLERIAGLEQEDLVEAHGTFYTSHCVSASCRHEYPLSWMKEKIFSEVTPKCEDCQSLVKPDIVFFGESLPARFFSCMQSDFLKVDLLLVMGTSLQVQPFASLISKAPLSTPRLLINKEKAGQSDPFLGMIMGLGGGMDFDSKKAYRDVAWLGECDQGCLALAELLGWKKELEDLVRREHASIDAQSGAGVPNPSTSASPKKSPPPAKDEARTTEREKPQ
Method: (§1) Reactions containing 800 μM NAD^+, 500 μM H3 peptide, and 100 mM phosphate buffer at pH 7.5, with varying concentrations of 2′-deoxy-2′-fluoro-nucleosides or nucleotides were initiated by addition of SirT2 enzyme to a concentration of 16.6 μM. Reactions were incubated for 45 mins at 37° C. and quenched by addition of trifluoroacetic acid to pH 2. After centrifugation to remove precipitates, reactions were injected on HPLC for activity analysis. Production of 2′- and 3′-AADPR were analyzed at 260 nm.
as §1, with “SirT2 Activity Assay: Reactions containing” for “Reactions containing”, “concentrations of 2′-deoxy-2′-chloro-nucleosides were initiated” for “concentrations of 2′-deoxy-2′-fluoro-nucleosides or nucleotides were initiated”

HEK293 cells = experiment: Toxicity to HEK293 cells (MTT); format: cell-based; details: for 100 μM absorbance / 100 μM relative viability: HEK293, 100 μM; for 100 μM absorbance / 100 μM relative viability / 500 μM absorbance / 500 μM relative viability: 12 hours; for 100 μM absorbance / 500 μM absorbance: MTT 1.5 hours, 570 nm; for 100 μM relative viability / 500 μM relative viability: control = 1; for 500 μM absorbance / 500 μM relative viability: HEK293, 500 μM; for pEC50: 2′-deoxy-2′-fluoro-nucleosides and nucleotides
Method: 1. HEK293 cells were seeded in 96-well plate at a density of 25,000 cells/well the day before the experiment starts;
2. After the cells reach 50˜60% confluency, media was taken out, and 100 μL of fresh media was added to each well;
3. F-derivatives were plated at 100 and 500 μM (in duplicates) concentrations;
4. After 12 hours' incubation at 37° C., the media was taken out, 100 μL of fresh media was added to each well along with 20 μL of 5 mg/mL of MTT solution (in PBS);
5. After 1.5 hours' incubation at 37° C., media was taken out and 100 μL of DMSO was added to each well, the plate was mixed on shaker for 5 mins;
(§2) Absorbance was measured at 570 nm.
(§3) Assay for Determining Toxicity to HEK293 and Neuro2A Cells • 1. HEK293 and Neuro2A cells were seeded in 96-well plate at a density of 25,000 cells/well the day before the experiment starts; • 2. After the cells reach 50˜60% confluency, media was taken out, and 100 μL of fresh media was added to each well; • 3. Cl-derivatives were plated at 100 and 500 μM (in duplicates) concentrations; • 4. After 12 hours' incubation at 37° C., the media was taken out, 100 μL of fresh media was added to each well along with 20 μL of 5 mg/mL of MTT solution (in PBS); • 5. After 2 hours' incubation at 37° C., media was taken out and 100 μL of DMSO was added to each well, the plate was mixed on shaker for 5 mins; • 6. Absorbance was measured at 570 nm.

Neuro2A cells = experiment: Toxicity to Neuro2A cells (MTT); format: cell-based; details: for 100 μM absorbance / 100 μM relative viability / 500 μM absorbance / 500 μM relative viability: 12 hours; for 100 μM absorbance / 500 μM absorbance: MTT 1.5 hours, 570 nm; for 100 μM relative viability / 500 μM relative viability: control = 1; for pEC50: 2′-deoxy-2′-fluoro-nucleosides and nucleotides
Method: 6. Neuro2A cells were seeded in 96-well plate at a density of 25,000 cells/well the day before the experiment starts;
7. After the cells reach 50˜60% confluency, media was taken out, and 100 μL of fresh media was added to each well;
8. […]
9. After 12 hours' incubation at 37° C., the media was taken out, 100 μL of fresh media was added to each well along with 20 μL of 5 mg/mL of MTT solution (in PBS);
10. After 1.5 hours' incubation at 37° C., media was taken out and 100 μL of DMSO was added to each well, the plate was mixed on shaker for 5 mins;
as §2
as §3, with “Cl-derivatives were plated at 100 and 500 μM (in duplicates) concentrations; • 4.” left out

[1] = target: T2, cell developmental protein 38 (CD38) (Homo sapiens, UniProt P28907); details: mechanism-based inhibitor; previous studies (Refs. 10, 12); read-out: apparent Ki; cited from earlier work
T2 sequence (P28907 1-300): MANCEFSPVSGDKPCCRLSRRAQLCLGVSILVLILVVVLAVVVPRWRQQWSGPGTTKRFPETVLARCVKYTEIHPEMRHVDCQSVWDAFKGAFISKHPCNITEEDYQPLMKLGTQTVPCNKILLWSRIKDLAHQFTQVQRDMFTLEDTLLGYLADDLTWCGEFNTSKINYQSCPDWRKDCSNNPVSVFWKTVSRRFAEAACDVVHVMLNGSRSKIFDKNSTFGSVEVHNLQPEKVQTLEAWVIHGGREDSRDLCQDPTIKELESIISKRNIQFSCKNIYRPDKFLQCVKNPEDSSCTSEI

SirT1 = target: T3, SirT1 (Homo sapiens, UniProt Q96EB6); experiment: SirT1 activity assay (HPLC of 2′- and 3′-AADPR); format: biochemical; details: 200 μM NAD+, 100 μM JB12 peptide, pH 7.5, 30 mins at 37° C.
T3 sequence (Q96EB6 1-747): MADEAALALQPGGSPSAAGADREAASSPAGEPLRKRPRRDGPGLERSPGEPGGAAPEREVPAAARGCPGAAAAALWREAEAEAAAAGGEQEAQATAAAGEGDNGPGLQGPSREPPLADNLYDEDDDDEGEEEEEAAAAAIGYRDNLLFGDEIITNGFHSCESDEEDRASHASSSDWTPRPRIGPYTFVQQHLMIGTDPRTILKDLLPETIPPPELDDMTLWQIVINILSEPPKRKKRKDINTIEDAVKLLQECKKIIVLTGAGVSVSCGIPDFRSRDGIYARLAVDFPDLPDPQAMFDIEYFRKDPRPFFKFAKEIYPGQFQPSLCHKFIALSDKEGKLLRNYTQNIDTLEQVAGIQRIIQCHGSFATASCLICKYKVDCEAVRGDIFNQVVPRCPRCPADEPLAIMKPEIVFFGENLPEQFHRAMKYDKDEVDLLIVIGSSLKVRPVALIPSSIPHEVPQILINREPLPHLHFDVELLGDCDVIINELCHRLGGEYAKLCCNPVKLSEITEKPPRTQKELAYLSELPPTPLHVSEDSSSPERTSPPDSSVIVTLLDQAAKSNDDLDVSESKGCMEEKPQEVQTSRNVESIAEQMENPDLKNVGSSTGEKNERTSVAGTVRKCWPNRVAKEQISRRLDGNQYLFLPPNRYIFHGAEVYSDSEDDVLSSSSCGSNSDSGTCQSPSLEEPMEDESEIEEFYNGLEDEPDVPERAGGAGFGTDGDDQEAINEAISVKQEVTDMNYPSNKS
Method: as §1, with “200” for “800”, “100” for “500”, “JB12” for “H3”, “SirT1” for “SirT2”, “12.9” for “16.6”, “30” for “45”
SirT1 Activity Assay: Reactions containing 200 μM NAD^+, 100 μM JB12 peptide, and 100 mM phosphate buffer at pH 7.5, with varying concentrations of 2′-deoxy-2′-chloro-nucleosides were initiated by addition of SirT1 enzyme to a concentration of 12.9 μM. Reactions were incubated for 30 mins at 37° C. and quenched by addition of trifluoroacetic acid to pH 2. After centrifugation to remove precipitates, reactions were injected on HPLC for activity analysis. Production of 2′- and 3′-AADPR were analyzed at 260 nm.

Compound | effect of PNP inhibition on β-ara-Cl-NR toxicity (HEK293 and Neuro2A cells) | SirT2 inhibition (in words) (SirT2) | 100 μM absorbance (HEK293 cells) | 100 μM relative viability (HEK293 cells) | 500 μM absorbance (HEK293 cells) | 500 μM relative viability (HEK293 cells) | pEC50 (HEK293 cells; HEK293) | 100 μM absorbance (Neuro2A cells) | 100 μM relative viability (Neuro2A cells) | 500 μM absorbance (Neuro2A cells) | 500 μM relative viability (Neuro2A cells) | pEC50 (Neuro2A cells) | pKi [1] | pKi (SirT1) | pEC50 (HEK293 cells; Homo sapiens, HEK293, HEK293) | pEC50 (Neuro2A cells; Mus musculus, N2a)
O=c1[nH]cnc2c([C@@H]3N[C@H](CO)[C@@H](O)[C@H]3O)c[nH]c12 [Immucillin-H] | largely incapable of preventing this toxicity |  |  |  |  |  |  |  |  |  |  |  |  |  |  | 
NC(=O)c1ccc[n+]([C@@H]2O[C@H](COP(=O)([O-])O)C(O)C2F)c1 (stereo partly drawn) [ara-F-NMN, 2′-deoxy-2′-fluoro-arabino-nicotinamide mononucleotide] |  | no inhibition | 1.267 | 0.5574 | 0 | 0 | 4.06 | 2.126 | 0.874 | 0.0143 | 0.006 | 3.79 | 7.21 |  |  | 
NC(=O)c1ccc[n+]([C@@H]2O[C@H](COP(=O)([O-])OP(=O)(O)OC[C@H]3O[C@@H](n4cnc5c(N)ncnc54)[C@H](O)[C@@H]3O)[C@@H](O)C2(F)F)c1 [gem-diF-NAD, 2′-deoxy-2′,2′-difluoro-NAD^+] |  |  | 1.797 | 0.7905 | 1.556 | 0.6844 |  | 1.5765 | 0.648 | 1.1916 | 0.49 |  |  | 4.22 | 2.95 | 3.40
